Read-outs that look alike come from different tables or passages of the source.
What was measured:
[1] = biological target: human P2X2/3 receptor (Homo sapiens (Human), UniProt P56373+Q9UBL9); assay: Intracellular calcium measurement (FLIPR, Fluo-4) of antagonist activity at human P2X2/3 receptors; assay type: cell-based
Method in brief: (§1)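 Cells expressing human P2X3 or P2X2/3, loaded with Fluo-4, preincubated 30 min at 37° C. with compound (1% DMSO final), then challenged with α,β-Me-ATP at its EC80. Peak FLIPR fluorescence over 90 sec gave % response; IC50, maximal inhibition and Hill slope from triplicates.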

[2] = biological target: human P2X3 receptor (Homo sapiens (Human), UniProt P56373); assay: Intracellular calcium measurement (FLIPR, Fluo-4) of antagonist activity at human P2X3 receptors; assay type: cell-based; details: read-out: hP2X3 IC50
human P2X3 receptor, sequence (P56373 whole entry): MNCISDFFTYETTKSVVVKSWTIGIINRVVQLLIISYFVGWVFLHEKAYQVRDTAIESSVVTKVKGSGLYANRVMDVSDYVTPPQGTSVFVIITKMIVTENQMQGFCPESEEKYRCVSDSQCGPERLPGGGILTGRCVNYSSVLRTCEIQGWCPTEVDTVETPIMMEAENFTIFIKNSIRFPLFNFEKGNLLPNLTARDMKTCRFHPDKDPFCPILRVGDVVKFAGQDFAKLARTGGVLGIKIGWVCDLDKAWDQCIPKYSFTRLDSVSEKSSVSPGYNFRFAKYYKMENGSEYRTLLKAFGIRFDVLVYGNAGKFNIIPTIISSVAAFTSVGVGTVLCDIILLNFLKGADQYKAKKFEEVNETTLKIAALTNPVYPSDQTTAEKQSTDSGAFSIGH
Method in brief: as §1

[3] = human P2X2/3, FLIPR calcium assay, agonist α,β-Me-ATP, read-out: hP2X2/3 IC50
[4] = human P2X3, FLIPR calcium assay, agonist α,β-Me-ATP

human P2X2/3 receptor, sequence (P56373 whole entry): as above
human P2X2/3 receptor, sequence (Q9UBL9 whole entry): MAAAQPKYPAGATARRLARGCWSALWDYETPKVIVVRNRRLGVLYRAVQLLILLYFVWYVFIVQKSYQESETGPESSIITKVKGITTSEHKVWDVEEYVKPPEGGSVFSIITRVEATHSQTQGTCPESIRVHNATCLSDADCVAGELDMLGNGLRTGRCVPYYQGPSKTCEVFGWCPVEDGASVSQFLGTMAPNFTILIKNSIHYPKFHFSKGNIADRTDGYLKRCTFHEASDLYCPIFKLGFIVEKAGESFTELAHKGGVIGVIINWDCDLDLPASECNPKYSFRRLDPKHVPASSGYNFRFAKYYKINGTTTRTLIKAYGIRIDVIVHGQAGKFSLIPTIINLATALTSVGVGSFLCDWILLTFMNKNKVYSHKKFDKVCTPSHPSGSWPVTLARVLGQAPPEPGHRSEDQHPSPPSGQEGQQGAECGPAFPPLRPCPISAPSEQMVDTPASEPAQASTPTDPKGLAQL

SMILES | IC50 [1, 3] | IC50 [2, 4] | IC50 ([1]; hP2X2/3 IC50 (nM)) | IC50 [2]
Cc1cnc(-c2cc(OC[C@@H]3COCCO3)cc(C(=O)N[C@H](C)c3cnc(C(F)(F)F)nc3)c2)s1 [Example 181, 3-[(2S)-1,4-dioxan-2-ylmethoxy]-5-(5-methyl-1,3-thiazol-2-yl)-N-{(1R)-1-[2-(trifluoromethyl)pyrimidin-5-yl]ethyl}benzamide] | 1180 nM | 19 nM |  | 
Cc1cnc(-c2cc(OC[C@@H]3COCCO3)cc(C(=O)N[C@H](C)c3ccc(C(F)(F)F)nn3)c2)s1 [Example 182, 3-[(2S)-1,4-dioxan-2-ylmethoxy]-5-(5-methyl-1,3-thiazol-2-yl)-N-{(1R)-1-[6-(trifluoromethyl)pyridazin-3-yl]ethyl}benzamide] | 1940 nM | 63 nM |  | 
Cc1cnc(-c2cc(O[C@@H]3CCCN(C(=O)OC(C)(C)C)C3)cc(C(=O)N[C@H](C)c3cnc(C(F)(F)F)nc3)c2)s1 [Example 190, tert-Butyl (3R)-3-[3-(5-methyl-1,3-thiazol-2-yl)-5-({(1R)-1-[2-(trifluoromethyl)pyrimidin-5-yl]ethyl}carbamoyl)phenoxy]piperidine-1-carboxylate] | 207 nM | 7 nM |  | 
CC#CCOc1cc(C(=O)N[C@H](C)c2ccc(C)nn2)cc(-c2ncc(C)s2)c1 [Example 191, 3-(but-2-yn-1-yloxy)-N-[(1R)-1-(6-methylpyridazin-3-yl)ethyl]-5-(5-methyl-1,3-thiazol-2-yl) benzamide] | 364 nM | 61 nM |  | 
Cc1cnc(-c2cc(O[C@@H]3CN4CCC3CC4)cc(C(=O)N[C@H](C)c3cnc(C(F)(F)F)nc3)c2)s1 [Example 192, 3-[(3S)-1-azabicyclo[2.2.2]oct-3-yloxy]-5-(5-methyl-1,3-thiazol-2-yl)-N-{(1R)-1-[2-(trifluoromethyl)pyrimidin-5-yl]ethyl} benzamide] |  |  | 910 nM | 12 nM
Cc1cnc(-c2cc(OC3CCNCC3)cc(C(=O)N[C@H](C)c3ccc(C(F)(F)F)nn3)c2)s1 [Example 201, 3-(5-methyl-1,3-thiazol-2-yl)-5-(piperidin-4-yloxy)-N-{(1R)-1-[6-(trifluoromethyl)pyridazin-3-yl]ethyl}benzamide] | 1850 nM | 16 nM |  | 
Cc1cnc(-c2cc(OC3CC4(CNC4)C3)cc(C(=O)N[C@H](C)c3cnc(C(F)(F)F)nc3)c2)s1 [Example 202, 3-(2-azaspiro[3.3]hept-6-yloxy)-5-(5-methyl-1,3-thiazol-2-yl)-N-{(1R)-1-[2-(trifluoromethyl)pyrimidin-5-yl]ethyl} benzamide] | 1710 nM | 42 nM |  | 
Cc1cnc(-c2cc(O[C@H]3CCNC3)cc(C(=O)N[C@H](C)c3cnc(C(F)(F)F)nc3)c2)s1 [Example 203, 3-(5-methyl-1,3-thiazol-2-yl)-5-[(3S)-pyrrolidin-3-yloxy]-N-{(1R)-1-[2-(trifluoromethyl)pyrimidin-5-yl]ethyl} benzamide] | 1560 nM | 36 nM |  | 
Cc1cnc(-c2cc(OC3CCNCC3F)cc(C(=O)N[C@H](C)c3cnc(C(F)(F)F)nc3)c2)s1 (stereo partly drawn) [Example 204, 3-{[3-fluoropiperidin-4-yl]oxy}-5-(5-methyl-1,3-thiazol-2-yl)-N-{(1R)-1-[2-(trifluoromethyl)pyrimidin-5-yl]ethyl} benzamide] | 82 nM | 7 nM |  | 
Cc1cnc(-c2cc(OC3CC4CC3CN4C)cc(C(=O)N[C@H](C)c3cnc(C(F)(F)F)nc3)c2)s1 (stereo partly drawn) [Example 209, 3-{[2-methyl-2-azabicyclo[2.2.1]hept-5-yl]oxy}-5-(5-methyl-1,3-thiazol-2-yl)-N-{(1R)-1-[2-(trifluoromethyl)pyrimidin-5-yl]ethyl}benzamide] | 1470 nM | 30 nM |  | 
Cc1cnc(-c2cc(OC3CCN(C)CC3)cc(C(=O)N[C@H](C)c3ccc(C(F)(F)F)nn3)c2)s1 [Example 210, 3-[(1-methylpiperidin-4-yl)oxy]-5-(5-methyl-1,3-thiazol-2-yl)-N-{(1R)-1-[6-(trifluoromethyl)pyridazin-3-yl]ethyl} benzamide] | 1010 nM | 12 nM |  | 
Cc1cnc(-c2cc(OC3CN(C)C3)cc(C(=O)N[C@H](C)c3ccc(C(F)(F)F)nn3)c2)s1 [Example 211, 3-[(1-methylazetidin-3-yl)oxy]-5-(5-methyl-1,3-thiazol-2-yl)-N-{(1R)-1-[6-(trifluoromethyl)pyridazin-3-yl]ethyl} benzamide] | ≥ 10000 nM | 395 nM |  | 
Cc1cnc(-c2cc(OC3CCN(C)CC3F)cc(C(=O)N[C@H](C)c3cnc(C(F)(F)F)nc3)c2)s1 (stereo partly drawn) [Example 212, 3-[(3-fluoro-1-methylpiperidin-4-yl)oxy]-5-(5-methyl-1,3-thiazol-2-yl)-N-{(1R)-1-[2-(trifluoromethyl)pyrimidin-5-yl]ethyl} benzamide] | 46 nM | 4 nM |  | 
Cc1cnc(-c2cc(OCC3(N(C)C)CC3)cc(C(=O)N[C@H](C)c3cnc(C(F)(F)F)nc3)c2)s1 [Example 213, 3-{[1-(dimethylamino)cyclopropyl]methoxy}-5-(5-methyl-1,3-thiazol-2-yl)-N-{(1R)-1-[2-(trifluoromethyl)pyrimidin-5-yl]ethyl} benzamide] | 81 nM | 5 nM |  | 
Cc1cnc(-c2cc(OC3CC4(C3)CN(C)C4)cc(C(=O)N[C@H](C)c3cnc(C(F)(F)F)nc3)c2)s1 [Example 214, 3-[(2-methyl-2-azaspiro [3.3]hept-6-yl)oxy]-5-(5-methyl-1,3-thiazol-2-yl)-N-{(1R)-1-[2-(trifluoromethyl)pyrimidin-5-yl]ethyl} benzamide] | 3390 nM | 47 nM |  | 
Cc1cnc(-c2cc(OC3CCN(C)CC3)cc(C(=O)N[C@H](C)c3cnc(C(F)F)nc3)c2)s1 [Example 215] | 992 nM |  |  | 16 nM
Cc1cnc(-c2cc(O[C@H]3C[C@H]4CC[C@@H](C3)N4C)cc(C(=O)N[C@H](C)c3cnc(C(F)(F)F)nc3)c2)s1 [Example 216, 3-{[(3-endo)-8-methyl-8-azabicyclo[3.2.1]oct-3-yl]oxy}-5-(5-methyl-1,3-thiazol-2-yl)-N-{(1R)-1-[2-(trifluoromethyl)pyrimidin-5-yl]ethyl} benzamide] | 928 nM | 14 nM |  | 
Cc1cnc(-c2cc(O[C@@H]3C[C@H]4CC[C@@H](C3)N4C)cc(C(=O)N[C@H](C)c3cnc(C(F)(F)F)nc3)c2)s1 [Example 217, 3-{[(3-exo)-8-methyl-8-azabicyclo[3.2.1]oct-3-yl]oxy}-5-(5-methyl-1,3-thiazol-2-yl)-N-{(1R)-1-[2-(trifluoromethyl)pyrimidin-5-yl]ethyl} benzamide] | 1750 nM | 25 nM |  | 
Cc1cnc(-c2cc(O[C@@H]3CC[C@H]4[C@H]3OCCN4C)cc(C(=O)N[C@H](C)c3cnc(C(F)(F)F)nc3)c2)s1 [Example 218, 3-{[(4aS,7R, 7aR)-4-methyloctahydro-cyclopenta [b][1,4]oxazin-7-yl]oxy}-5-(5-methyl-1,3-thiazol-2-yl)-N-{(1R)-1-[2-(trifluoromethyl)pyrimidin-5-yl]ethyl} benzamide] | 281 nM | 7 nM |  | 
Cc1cnc(-c2cc(O[C@H]3CC[C@H]4[C@H]3OCCN4C)cc(C(=O)N[C@H](C)c3cnc(C(F)(F)F)nc3)c2)s1 [Example 219, 3-{[(4aS,7S, 7aR)-4-methylocta-hydro-cyclopenta[b] [1,4]oxazin-7-yl]oxy}-5-(5-methyl-1,3-thiazol-2-yl)-N-{(1R)-1-[2-(trifluoromethyl)pyrimidin-5-yl]ethyl} benzamide] | 199 nM | 2 nM |  | 
Cc1cnc(-c2cc(OC3CCN(C(C)C)CC3)cc(C(=O)N[C@H](C)c3ccc(C(F)(F)F)nn3)c2)s1 [Example 224, 3-(5-Methyl-1,3-thiazol-2-yl)-5-{[1-(propan-2-yl)piperidin-4-yl]oxy}-N-{(1R)-1-[6-(trifluoromethyl)pyridazin-3-yl]ethyl}benzamide] | 569 nM | 9 nM |  | 
Cc1cnc(-c2cc(O[C@H]3CCN(C(C)C)C3)cc(C(=O)N[C@H](C)c3cnc(C(F)(F)F)nc3)c2)s1 [Example 225, 3-(5-methyl-1,3-thiazol-2-yl)-5-{[(3S)-1-(propan-2-yl)pyrrolidin-3-yl]oxy}-N-{(1R)-1-[2-(trifluoromethyl)pyrimidin-5-yl]ethyl}benzamide] | 1140 nM | 16 nM |  | 
COC(=O)N1CCC(Oc2cc(C(=O)N[C@H](C)c3cnc(C(F)(F)F)nc3)cc(-c3ncc(C)s3)c2)CC1 [Example 226, Methyl 4-[3-(5-methyl-1,3-thiazol-2-yl)-5-({(1R)-1-[2-(trifluoromethyl)pyrimidin-5-yl]ethyl}carbamoyl)phenoxy]piperidine-1-carboxylate] | 59 nM | 6 nM |  | 
CCOC(=O)N1CCC(Oc2cc(C(=O)N[C@H](C)c3cnc(C(F)(F)F)nc3)cc(-c3ncc(C)s3)c2)CC1 [Example 227, Ethyl 4-[3-(5-methyl-1,3-thiazol-2-yl)-5-({(1R)-1-[2-(trifluoromethyl)pyrimidin-5-yl]ethyl}carbamoyl)phenoxy]piperidine-1-carboxylate] | 161 nM | 13 nM |  | 
CCOC(=O)N1CC[C@H](Oc2cc(C(=O)N[C@H](C)c3cnc(C(F)(F)F)nc3)cc(-c3ncc(C)s3)c2)C1 [Example 228, Ethyl (3S)-3-[3-(5-methyl-1,3-thiazol-2-yl)-5-({(1R)-1-[2-(trifluoromethyl)pyrimidin-5-yl]ethyl}carbamoyl)phenoxy]pyrrolidine-1-carboxylate] | 54 nM | 5 nM |  | 
Cc1cnc(-c2cc(OC3CN(C(C)C)C3)cc(C(=O)N[C@H](C)c3cnc(C(F)(F)F)nc3)c2)s1 [Example 229, 3-(5-Methyl-1,3-thiazol-2-yl)-5-{[1-(propan-2-yl)azetidin-3-yl]oxy}-N-{(1R)-1-[2-(trifluoromethyl)pyrimidin-5-yl]ethyl}benzamide] | 2280 nM | 44 nM |  | 

— patent US10174016B2 (BAYER AKTIENGESELLSCHAFT, priority 2014, dated 2019)
